Key:
[1] = Effect of pH and cyclodextrins on the fraction of the open form (diazepine ring-opening) of benzodiazepines; assay type: physicochemical
Protocol: The cyclodextrin concentration was 10% (w/v) and the benzodiazepine concentration was 1×10^−4 M. The concentration of the closed form was determined immediately after dissolving the benzodiazepine in the aqueous cyclodextrin solution and again 24 hours later (i.e. after equilibration at 23° C.). Preliminary experiments had shown that equilibrium between the closed and the open form was attained within 3 hours at 23° C.

[2] = First-order rate constant of diazepine ring-closure (regeneration of the benzodiazepine); assay type: physicochemical; settings: pH 7.5, 37° C.
Protocol: The effect of cyclodextrins and organic solvents on the rate of diazepine ring-closure of several selected benzodiazepines was investigated. Stock solutions containing 1.0×10^−3 M of the benzodiazepine in 0.10 M aqueous hydrochloric acid solution (pH approx. 1.1) were prepared and stored at 37.0° C. The benzodiazepines were in the ring-open form in these stock solutions. Aqueous 0.50 M tris buffer (pH 7.50) solution was prepared. The observed first-order rate constant for the closing (i.e. formation) of the benzodiazepine ring was determined in the following reaction media: a) pure aqueous tris buffer solution; b) aqueous tris buffer solution containing 10% (w/v) cyclodextrin; c) tris buffer solution containing 10% (w/v) cyclodextrin and 10% (v/v) ethanol (EtOH); d) tris buffer solution containing 10% (w/v) cyclodextrin and 50% (v/v) EtOH; e) tris buffer solution containing 10% (w/v) cyclodextrin and 10% (v/v) dimethylsulfoxide (DMSO); and f) tris buffer solution containing 10% (w/v) cyclodextrin and 50% (w/v) DMSO. The stock solution (30 μl) was added to 1.50 ml of the reaction media which had previously been equilibrated to 37.0° C. and the first-order rate constant for the appearance of the closed form determined from the appearance of the closed form as observed on HPLC. Tables 5, 6 and 7 show the effects of cyclodextrins, EtOH and DMSO on the observed first-order rate constant for the regeneration of alprazolam, triazolam and midazolam, respectively. In pure aqueous buffer solutions, addition of EtOH and DMSO decreases somewhat the rate of ring closure, at least in the case of alprazolam and midazolam. Addition of cyclodextrin or the organic solvents have insignificant effect on the pH under these conditions. The dielectric constant of the reaction medium will, however, decrease upon addition of the organic solvents. It is possible that this decrease in the dielectric constant will reduce the ability of the reaction media to stabilize the transition state which could explain the decrease in the observed rate constant. […] The cyclodextrins formed stable complexes with the ring-open form of the drug and, thus, the rate decreased upon addition of cyclodextrin. […] EtOH and DMSO will compete with the diazepine ring-open form for a space in the cyclodextrin cavity resulting in decreased complexation.

[3] = Flux of alprazolam through hairless mouse skin in Franz diffusion cells
Protocol: Female hairless mice were sacrificed by cervical dislocation and their full-thickness skins removed. […] The skin was placed in Franz diffusion cells. The receptor phase consisted of phosphate buffer saline pH 7.4. The skin diffusion cells were stirred with a magnetic bar and kept at 37° C. by circulating water through an external jacket. […] The samples were kept frozen until analyzed by HPLC. The flux was calculated from the linear part of each permeability profile and the permeability coefficient obtained by dividing the flux with the concentration of dissolved drug in the donor phase.

[4] = 10% (w/v) HPβCD, pH 2, approx. 23° C.
[5] = 10% (w/v) HPβCD, pH 3, approx. 23° C.
[6] = 10% (w/v) HPβCD, pH 4, approx. 23° C.
[7] = 10% (w/v) SBEβCD, pH 2, approx. 23° C.
[8] = 10% (w/v) SBEβCD, pH 3, approx. 23° C.
[9] = 10% (w/v) SBEβCD, pH 4, approx. 23° C.
[10] = 10% (w/v) αCD, pH 2, approx. 23° C.
[11] = 10% (w/v) αCD, pH 3, approx. 23° C.
[12] = 10% (w/v) αCD, pH 4, approx. 23° C.
[13] = 10% (w/v) γCD, pH 2, approx. 23° C.
[14] = 10% (w/v) γCD, pH 3, approx. 23° C.
[15] = 10% (w/v) γCD, pH 4, approx. 23° C.
[16] = no cyclodextrin, pH 2, approx. 23° C.
[17] = no cyclodextrin, pH 3, approx. 23° C.
[18] = no cyclodextrin, pH 4, approx. 23° C.

CN1C(=O)CN=C(c2ccccc2)c2cc(Cl)ccc21 [Diazepam]
Fraction open [1, 4]: 0.65
Fraction open [1, 5]: 0.29
Fraction open [1, 6]: 0.15
Fraction open [1, 7]: 0.63
Fraction open [1, 8]: 0.56
Fraction open [1, 9]: 0.22
Fraction open [1, 10]: 0.67
Fraction open [1, 11]: 0.51
Fraction open [1, 12]: 0.13
Fraction open [1, 13]: 0.41
Fraction open [1, 14]: 0.17
Fraction open [1, 15]: 0.13
Fraction open [1, 16]: 0.30
Fraction open [1, 17]: 0.23
Fraction open [1, 18]: 0.15

Cc1nnc2n1-c1ccc(Cl)cc1C(c1ccccc1)=NC2 [alprazolam, 8-chloro-1-methyl-6-phenyl-4H-s-triazolo[4,3-a][1,4]benzodiazepine]
observed first-order rate constant, ring formation ([2]; 10% HPβCD, 10% DMSO): 444 min⁻¹
observed first-order rate constant, ring formation ([2]; 10% HPβCD, 10% EtOH): 523 min⁻¹
observed first-order rate constant, ring formation ([2]; 10% HPβCD, 50% DMSO): 857 min⁻¹
observed first-order rate constant, ring formation ([2]; 10% HPβCD, 50% EtOH): 707 min⁻¹
observed first-order rate constant, ring formation ([2]; 10% HPβCD, pure water): 330 min⁻¹
observed first-order rate constant, ring formation ([2]; 10% RMβCD, 10% DMSO): 397 min⁻¹
observed first-order rate constant, ring formation ([2]; 10% RMβCD, 10% EtOH): 490 min⁻¹
observed first-order rate constant, ring formation ([2]; 10% RMβCD, 50% DMSO): 792 min⁻¹
observed first-order rate constant, ring formation ([2]; 10% RMβCD, 50% EtOH): 670 min⁻¹
observed first-order rate constant, ring formation ([2]; 10% RMβCD, pure water): 297 min⁻¹
observed first-order rate constant, ring formation ([2]; 10% SBEβCD, 10% EtOH): 518 min⁻¹
observed first-order rate constant, ring formation ([2]; 10% SBEβCD, 50% DMSO): 936 min⁻¹
observed first-order rate constant, ring formation ([2]; 10% SBEβCD, 50% EtOH): 582 min⁻¹
observed first-order rate constant, ring formation ([2]; 10% SBEβCD, pure water): 311 min⁻¹
observed first-order rate constant, ring formation ([2]; No CD, 10% DMSO): 968 min⁻¹
observed first-order rate constant, ring formation ([2]; No CD, 10% EtOH): 1150 min⁻¹
observed first-order rate constant, ring formation ([2]; No CD, 50% DMSO): 1070 min⁻¹
observed first-order rate constant, ring formation ([2]; No CD, 50% EtOH): 724 min⁻¹
observed first-order rate constant, ring formation ([2]; No CD, pure water): 1420 min⁻¹
alprazolam concentration in the donor phase (saturated) ([3]; aqueous 7% (w/v) SBEβCD, pH 3.3): 1.85 mg/mL
Flux ([3]; donor 7% (w/v) SBEβCD pH 3.3, without increasing the pH): 3.91 × 10^−4 mg/cm^2/h
Flux ([3]; donor 7% (w/v) SBEβCD, increasing the pH from 3.3 to 4.1): 4.56 × 10^−4 mg/cm^2/h
Flux Ratio ([3]; increasing the pH from 3.3 to 4.1): 1.2
Flux Ratio ([3]; without increasing the pH): 1.0
Fraction open [1, 4]: 0.89
Fraction open [1, 5]: 0.60
Fraction open [1, 6]: 0.23
Fraction open [1, 7]: 0.96
Fraction open [1, 8]: 0.84
Fraction open [1, 9]: 0.33
Fraction open [1, 10]: 0.94
Fraction open [1, 11]: 0.79
Fraction open [1, 12]: 0.25
Fraction open [1, 13]: 0.81
Fraction open [1, 14]: 0.41
Fraction open [1, 15]: 0.42
share of drug in the open form ([1]; aqueous HPβCD solution, pH 3): about 60%
Fraction open [1, 16]: 0.82
Fraction open [1, 17]: 0.56
Fraction open [1, 18]: 0.33
